# Data published in article PMC4795541, “A Rapid and Quantitative Flow Cytometry Method for the Analysis of Membrane Disruptive Antimicrobial Activity” (PLoS ONE, 2016).
# Read-outs that look alike come from different tables or passages of the source. Marks after values point to notes of the source that are not given here. Where a SMILES comes first, the peptide text is derived from it. Where no end group is shown, it is not given here. [ ]: non-standard residue; d: D form. Phe(ol) = N[C@H](CO)Cc1ccccc1; Dab = NCC[C@H](N)C(=O)O; Dap = NC[C@H](N)C(=O)O; Aib = CC(C)(N)C(=O)O
# Assays:
# S. mutans Ingbritt [1] = test system: S. mutans Ingbritt
# Excerpt: (§1) The bacterial strains; Fusobacterium nucleatum ATCC 25586, Streptococcus mutans Ingbritt, Staphylococcus aureus (MSSA) ATCC 29213; Staphylococcus aureus (MRSA) ATCC 43300; Enterococcus faecalis ATCC 29212; Enterobacter aerogenes ATCC 13048; Pseudomonas aeruginosa strain PAO1-LAC, ATCC 47085; Klebsiella pneumoniae ATCC 13883; Acinetobacter baumannii strain 2208, ATCC 19606; Escherichia coli ATCC 25922 lyophilised or glycerol stocks were obtained from the culture collection of the Oral Health Cooperative Research Centre, The Melbourne Dental School, University of Melbourne, Australia. These strains were selected for this study as they are widely used in antimicrobial studies and are considered to be important pathogens and major targets for antibiotic resistant studies. Bacteria were grown aerobically and maintained by passage at ambient temperature (E. coli, K. pneumoniae, A. baumannii and S. aureus strains) or at 37°C (P. aeruginosa, E. faecalis and E. aerogenes) on horse blood agar (10% v/v defibrinated horse blood, 4.4% w/v Oxoid Blood Agar Base No. 2). S. mutans and F. nucleatum were grown anaerobically (MK3 anaerobic workstation, Don Whitley Scientific Limited, England) and maintained by passage at 37°C on Todd Hewitt agar (3.6% w/v Oxoid Todd-Hewitt Broth, 1.5% w/v sucrose, 1.5% w/v BactoTM Agar, 0.8% w/v Oxoid Yeast Extract) or horse blood agar, respectively. For the antimicrobial peptide assays a 20 mL starter culture was produced by taking single colonies from blood or Todd Hewitt agar plates, respectively, to inoculate either: Luria Broth (LB; 1% w/v BactoTM Tryptone, 1% w/v NaCl, 0.5% w/v Oxoid Yeast Extract, pH 7.5, Thermo Scientific Pty, Ltd, Sydney, Australia) for bacteria; E. coli, K. pneumoniae, P. aeruginosa, A. baumannii, E. faecalis, E. aerogenes and S. aureus which were grown aerobically at 37°C, or Todd Hewitt broth (3.6% w/v Oxoid Todd-Hewitt Broth, 1.5% w/v sucrose, 0.8% w/v Oxoid Yeast 9 Extract) for S. mutans, or Brain Heart Infusion broth (BHI; 3.7% w/v Oxoid BHI, 0.05% w/v L-cysteine) for F. nucleatum which were both grown anaerobically at 37°C. After overnight incubation, 0.5–2.0 mL of the starter culture was used to inoculate the appropriate fresh broth (200 mL) and growth monitored at 650 nm using a spectrophotometer (model 275E; Perkin-Elmer, Sydney, Australia) with culture purity checked by microscopic examination and culture. Bacteria were harvested during late exponential growth phase and viability and bacteria/mL determined using a BacLight viability kit (Invitrogen, Sydney, Australia) and a Quanta SC-MPL flow cytometer (Beckman coulter Pty, Ltd, Sydney, Australia).
# (§2) Antibacterial assays were undertaken to determinate the minimum inhibitory concentration (MIC), minimum bactericidal concentration (MBC) and minimum membrane disruptive concentration (MDC) of each of the antimicrobial peptides (AMP) and AMP analogues (S1 Table). For each bacterim a stock solution (2.5 × 10^6 cells/mL) in the respective media was made and an aliquot incubated with AMPs within 15 minutes from viable cell count and stock preparation. All AMPs were dissolved in DMSO and a 500 μM stock solution prepared by adding the respective media and serial dilutions (250–0.244 μM) of the AMP in media (100 μL/well) made just prior addition of bacteria. […] One hundred microliter aliquots of the bacterial stock solution (2.5 × 10^5 cells/well) were added to the AMP serial dilutions and incubated at 37°C for 90 min. Assay preparation and incubations were conducted in aerobic or anaerobic conditions dependent on the bacteria. Bacteria were also incubated in the absence of AMP to serve as a growth control for the assay. After the 90 minute incubation period the antimicrobial activity (MIC, MBC and MDC) was determined as follows;
# (§3) For determination of MBC, the CLSI protocol was followed, with the modifications being that due to the rapid action of the AMPs the assay incubation time was shortened from 16–20 hours to 90 minutes.
# F. nucleatum ATCC 25586 [2] = test system: F. nucleatum ATCC 25586
# Excerpt: as §1, §2, §3
# sheep red blood cells = test: Hemolysis assay; format: cell-based; settings: for Therapeutic Index (hemolysis): HC50/MDC50 (F. nucleatum), given as x : 1
# Protocol: Fresh sheep red blood cells in Alsever’s solution (RBCs, Equicell, Victoria, Australia) were diluted 1 in 20 in PBS (pH 7.4), pelleted by centrifugation, and washed three times in PBS (1000 g, 10 min). The RBCs were counted using a cell counter (Coulter Particle Counter Z series, Beckman Coulter) and diluted to a final concentration of 2 × 10^7 cells/mL. […] Following incubation, the RBCs were pelleted centrifuged (1000 g, 10 min) and the amount of haemoglobin in 100 μL aliquots determined by measuring the absorbance at 405 nm using a microplate reader (PerkinElmer 1420 Multilabel Counter VICTOR3). Positive and negative controls for hemolysis were taken as RBC lysed with 0.5% Triton X-100 (1:1 v/v) and RBC suspension in PBS, respectively. The percentage of hemolysis was calculated using the following formula: % Hemolysis = [(A405 test sample—A405 negative control) / (A405 positive control—A405 negative control)] × 100
# The percentage hemolysis was plotted against peptide concentration and linear regression analysis was used to determine the hemolytic concentration needed to lyse 50% (HC50) of RBCs.
# S. mutans Ingbritt [3] = test: MDC, flow cytometry Syto9/PI membrane disruption assay; format: cell-based, Streptococcus mutans; settings: 90 min peptide/bacteria incubation, average of 3 assays ± SD
# Excerpt: as §1
# Antibacterial assays were undertaken to determinate the minimum inhibitory concentration (MIC), minimum bactericidal concentration (MBC) and minimum membrane disruptive concentration (MDC) of each of the antimicrobial peptides (AMP) and AMP analogues (S1 Table). For each bacterim a stock solution (2.5 × 10^6 cells/mL) in the respective media was made and an aliquot incubated with AMPs within 15 minutes from viable cell count and stock preparation. All AMPs were dissolved in DMSO and a 500 μM stock solution prepared by adding the respective media and serial dilutions (250–0.244 μM) of the AMP in media (100 μL/well) made just prior addition of bacteria. […] After the 90 minute incubation period the antimicrobial activity (MIC, MBC and MDC) was determined as follows;
# S. mutans Ingbritt [4] = test system: S. mutans Ingbritt; remark: listed apart in the source
# Excerpt: as §1, §2
# (§4) For MIC the CLSI broth microdilution assay was followed as we have previously described.
# F. nucleatum ATCC 25586 [5] = test system: F. nucleatum ATCC 25586; remark: listed apart in the source
# Excerpt: as §1, §2, §4
# [6] = S. mutans Ingbritt, 90 min peptide/bacteria incubation, CFU on agar, ≥ 99.9% reduction, average of 3 assays ± SD
# [7] = F. nucleatum ATCC 25586, 90 min peptide/bacteria incubation, CFU on agar, ≥ 99.9% reduction, average of 3 assays ± SD
# [8] = sheep RBCs 2 × 10^7 cells/mL in PBS pH 7.4, 2 h at 37°C, 5% CO2, A405, linear regression, maximum peptide concentration = 1000 µM
# [9] = S. mutans Ingbritt, 90 min peptide/bacteria incubation at 37°C, then growth at OD650, average of 3 assays ± SD
# [10] = F. nucleatum ATCC 25586, 2.5 × 10^5 cells/well, 90 min peptide/bacteria incubation at 37°C, then growth at OD650, average of 3 assays ± SD
Compound,MBC (S. mutans Ingbritt [1]; [6]),MBC (F. nucleatum ATCC 25586 [2]; [7]) [µM],Therapeutic Index (hemolysis) (sheep red blood cells),Hemolysis (HC50) (sheep red blood cells; [8]) [µM],MDC (S. mutans Ingbritt [3]),MIC (S. mutans Ingbritt [4]; [9]),MIC (F. nucleatum ATCC 25586 [5]; [10]) [µM],MBC (S. mutans Ingbritt [1]; Ingbritt),Hemolysis (HC50) (sheep red blood cells; pH 7.4) [µM],"MIC (S. mutans Ingbritt [4]; Ingbritt, 24 h)",MBC (F. nucleatum ATCC 25586 [2]; ATCC 25586),"MIC (F. nucleatum ATCC 25586 [5]; ATCC 25586, 24 h)","MBC (S. mutans Ingbritt [1]; S. mutans Ingbritt, 90 min peptide/bacteria incubation, CFU on agar, ≥ 99.9% reduction, average of 3 assays ± SD, listed as Native) [µM]","MBC (F. nucleatum ATCC 25586 [2]; F. nucleatum ATCC 25586, 90 min peptide/bacteria incubation, CFU on agar, ≥ 99.9% reduction, average of 3 assays ± SD, listed as Native) [µM]","MIC (S. mutans Ingbritt [4]; S. mutans Ingbritt, 90 min peptide/bacteria incubation at 37°C, then growth at OD650, average of 3 assays ± SD, listed as Native) [µM]","MIC (F. nucleatum ATCC 25586 [5]; F. nucleatum ATCC 25586, 2.5 × 10^5 cells/well, 90 min peptide/bacteria incubation at 37°C, then growth at OD650, average of 3 assays ± SD, listed as Native) [µM]"
GIGXFLHSAXXFGXAFVGEIMNS-CONH2 [Magainin-Orn],>200^c μM,14.9 ± 0.2,126.5 : 1,721.1 ± 65.3,>200^c μM,>200^c μM,13.1 ± 0.5,–,–,–,–,–,–,–,–,–
CC(=O)NC(C)(C)C(=O)N1CCC[C@H]1C(=O)NC(C)(C)C(=O)N[C@@H](C)C(=O)NC(C)(C)C(=O)N[C@@H](C)C(=O)N[C@@H](CCC(N)=O)C(=O)NC(C)(C)C(=O)N[C@H](C(=O)NC(C)(C)C(=O)NCC(=O)N[C@@H](CC(C)C)C(=O)NC(C)(C)C(=O)N1CCC[C@H]1C(=O)N[C@H](C(=O)NC(C)(C)C(=O)NC(C)(C)C(=O)N[C@@H](CCC(=O)O)C(=O)N[C@@H](CCC(N)=O)C(=O)N[C@H](CO)Cc1ccccc1)C(C)C)C(C)C [Alamethicin] (Ac-[Aib]P[Aib]A[Aib]AQ[Aib]V[Aib]GL[Aib]PV[Aib][Aib]EQ[Phe(ol)]; N-terminus assumed),39.8 ± 0.3 µM,18.0 ± 3.9,–,–,41.9 ± 8.3 µM,29.4 ± 8.2 µM,22.6 ± 12.7,–,–,–,–,–,–,–,–,–
CC[C@H](C)[C@H](NC(=O)CN)C(=O)NCC(=O)N[C@@H](CCN)C(=O)N[C@@H](Cc1ccccc1)C(=O)N[C@@H](CC(C)C)C(=O)N[C@@H](Cc1c[nH]cn1)C(=O)N[C@@H](CO)C(=O)N[C@@H](C)C(=O)N[C@@H](CCN)C(=O)N[C@@H](CCN)C(=O)N[C@@H](Cc1ccccc1)C(=O)NCC(=O)N[C@@H](CCN)C(=O)N[C@@H](C)C(=O)N[C@@H](Cc1ccccc1)C(=O)N[C@H](C(=O)NCC(=O)N[C@@H](CCC(=O)O)C(=O)N[C@H](C(=O)N[C@@H](CCSC)C(=O)N[C@@H](CC(N)=O)C(=O)N[C@@H](CO)C(N)=O)[C@@H](C)CC)C(C)C [Magainin-Dab] (H-GIG[Dab]FLHSA[Dab][Dab]FG[Dab]AFVGEIMNS-NH2; N-terminus assumed),–,–,>182 : 1,–,>200^c μM,–,6.3 ± 0.5,>200^c μM,>1000,>200^c μM,–,–,–,–,–,–
CC[C@H](C)[C@H](NC(=O)CN)C(=O)NCC(=O)N[C@@H](CN)C(=O)N[C@@H](Cc1ccccc1)C(=O)N[C@@H](CC(C)C)C(=O)N[C@@H](Cc1c[nH]cn1)C(=O)N[C@@H](CO)C(=O)N[C@@H](C)C(=O)N[C@@H](CN)C(=O)N[C@@H](CN)C(=O)N[C@@H](Cc1ccccc1)C(=O)NCC(=O)N[C@@H](CN)C(=O)N[C@@H](C)C(=O)N[C@@H](Cc1ccccc1)C(=O)N[C@H](C(=O)NCC(=O)N[C@@H](CCC(=O)O)C(=O)N[C@H](C(=O)N[C@@H](CCSC)C(=O)N[C@@H](CC(N)=O)C(=O)N[C@@H](CO)C(N)=O)[C@@H](C)CC)C(C)C [Magainin-Dap] (H-GIG[Dap]FLHSA[Dap][Dap]FG[Dap]AFVGEIMNS-NH2; N-terminus assumed),–,–,>67 : 1,–,>200^c μM,–,–,>200^c μM,>1000,>200^c μM,29.7±0.4^c μM,18.4±9.7^c μM,–,–,–,–
GIGRFLHSARRFGRAFVGEIMNS-NH2 [Magainin-Arg],–,–,100.8 : 1,–,42.5±5.7^c μM,–,–,37.3±1.9^c μM,251.9 ± 48.2,41.8±6.8^c μM,2.5±0.8^c μM,2.5±0.3^c μM,–,–,–,–
GIGKFLHSAKKFGKAFVGEIMNS-NH2 [Magainin II],109 ± 20.2 µM,8.1 ± 1.3,–,479.5 ± 42.9,–,109.3 ± 20.4 µM,10.2 ± 1.5,–,–,–,–,–,117.1 ± 2.3,7.3 ± 1.0,123.4 ± 9.2,10.1 ± 0.6
